Assay results reported in US12129258B2, “Diaryl macrocyclic compound and pharmaceutical composition, and use thereof” (PrimeGene (Beijing) Co., Ltd., priority 2018, dated 2024).
Like-named read-outs stand apart in the source and are kept apart here.

Columns and labels:
[1] = test system: H1975 (L858R and T790M double mutation) cells; experiment: Analysis of synergistic effect with EGFR inhibitor (Chou-Talalay), H1975 proliferation; assay type: cell-based; conditions: combination with AZD9291, H1975 cells, 72 hr, Chou-Talalay index method
Experimental: 5. Analysis of Synergistic Effect
H1975 (L858R and T790M double mutation) cells were cultured in RPMI-1640 medium containing 10% FBS and 1% P/S ([…]). In the testing of the compounds, H1975 cells were seeded in 96-well plate (Corning, Cat #3917) at 3000 cell/well and the compounds were added at 195 μL solution/well. The initial test concentration of the compound was 10 μM, 3-fold gradient diluted to obtain 11 samples. 4 μL of each sample was added to 96 μL RPMI-1640 medium to dilute the 25× Compound. 5 μL was added to 195 μL cell medium (the final concentration of DMSO is 0.1%, v/v). After 72 hr incubation, 35 μL of CellTiter-Blue® (Promega, Cat #G8082) was added to the cells. The fluorescence signal was measured with FlexStation 3 (Molecular Devices) according to the instructions, and the IC50 value of the compound on cell proliferation inhibition was calculated by Graphpad Grism 5.0 software. The Chou-Talalay index method was used to analyze the effect of the combination. 0.9≤Combination Index (CI)≤1.1 means additive effect, 0.8≤CI<0.9 means low synergistic effect, 0.6≤CI<0.8 means medium synergistic effect, 0.4≤CI<0.6 means high synergistic effect, 0.2≤CI<0.4 means strong synergistic effect.

TRKC = TRKC (Homo sapiens (Human), UniProt Q16288); experiment: Mobility shift assay, TRKC kinase; conditions: read-out: TRKC IC50, ATP 44.4 μM
Experimental: (§3) The inhibitory activity of compounds on TRKA, TRKB, TRKC and ROS1 kinase was analyzed with Mobility shift assay. The screening platform is MSA based microfluidic chip technology, which applies the basic concept of capillary electrophoresis to microfluidic environment. The substrate used in the experiment is a poly-peptide labeled with fluorescent. Under the catalysis of enzyme in the reaction system, the substrate is transformed into a product, with the charge changed accordingly. MSA technology could detect the substrate and the product with different charge separately.
(§4) The compound powder was dissolved in 100% DMSO (Sigma, Cat. D8418-1l) to prepare a 10 mM storage solution. […] The reaction was carried out at room temperature for 30 min/40 min/20 min/20 min respectively. After the reaction was terminated, the conversion rate was read by Caliper EZ Reader II.
(§5) Conversion %_Min: mean value of negative control, representing the conversion rate without enzyme activity;
(§6) Conversion %_Max: mean value of positive control, which represents the conversion rate reading without compound inhibition.
(§7) Taking the log value of concentration as X axis and the percentage inhibition rate as Y axis, the dose response curve was fitted by the analysis software GraphPad Prism 5, thus the IC50 value of each compound on enzyme activity inhibition was obtained.

TRKB = TRKB (Homo sapiens (Human), UniProt Q16620); experiment: Mobility shift assay, TRKB kinase; conditions: read-out: TRKB IC50, ATP 71.2 μM
Experimental: as §3, §4, §5, §6, §7

Ba/F3 ETV6-NTRK3-WT = experiment: Cell proliferation inhibition (CellTiter-Glo), Ba/F3 ETV6-NTRK3-WT; assay type: cell-based; conditions: Mus musculus, BaF3, 72 h, 72 hrs, read-out: IC50 proliferation Ba/F3 ETV6-NTRK3-WT
TRKA = TRKA (Homo sapiens (Human), UniProt P04629); experiment: Mobility shift assay, TRKA kinase; assay type: biochemical; conditions: ATP 47.8 μM
Source text: (§1) The operation is described as follows:
(§2) Conversion %_Sample: conversion rate of sample;

Ba/F3 ETV6-NTRK2-WT = experiment: Cell proliferation inhibition (CellTiter-Glo), Ba/F3 ETV6-NTRK2-WT; assay type: cell-based; conditions: Mus musculus, BaF3, 72 h, 72 hrs, read-out: IC50 proliferation Ba/F3 ETV6-NTRK2-WT
Experimental: 4. Inhibitory Effect of Compounds on the Proliferation of TRK Fusion and Mutant Stable Cell Lines (IC50)
Six cell lines including Ba/F3 LMNA-NTRK1-WT, Ba/F3 LMNA-NTRK1-G595R, Ba/F3 ETV6-NTRK2-WT, Ba/F3 ETV6-NTRK2-G639R, Ba/F3 ETV6-NTRK2-G639R and Ba/F3 ETV6-NTRK3-G623R were used in this experiment. For the six cell lines, the maximum test concentration of the compound was 1 μM, 1 μM, 10 μM, […], 1 μM and 10 μM, were 3.16-fold gradient diluted to obtain 9 samples.
The operation is described briefly as follows:
The cells in logarithmic growth phase were harvested to ensure that the cell viability was above 90%. 3000 cell/well were seeded in 96-well plate (Corning, Cat #3603). The cells were incubated overnight with 5% CO2, 95% humidity at 37° C. Then each well containing the cells of the 96-well plate was added the compound solutions, 3 wells for each compound solution, and continued to incubate for another 72 hrs. Then CellTiter-Glo® kit (Promega, Cat #G7572) was used to do the detection. First, the CTG reagent was melted and the cell plate was balanced to room temperature. The same volume of CTG solution was added into each well and vibrated on the shaker for 5 minutes to lyse the cells. The cell plate was kept at room temperature for 20 minutes to stabilize the luminescent signal. The luminescent value was collected by SpectraMax microplate detector (MD, 2104-0010A). […] Cell survival rate (%)=(1umdrug−1ummedium)/(1umcell−lummedium)×100%

Ba/F3 LMNA-NTRK3-G623R = experiment: Cell proliferation inhibition (CellTiter-Glo), Ba/F3 LMNA-NTRK3-G623R; assay type: cell-based; conditions: Mus musculus, BaF3, 72 h, 72 hrs, read-out: IC50 proliferation Ba/F3 LMNA-NTRK3-G623R
ALK-L1196M = ALK-L1196M (Homo sapiens (Human), UniProt Q9UM73, L1196M); experiment: HTRF kinase activity assay, ALK-L1196M; assay type: biochemical; conditions: 30 μM ATP
Experimental: The IC50 values of the compounds were calculated using XLFIT5 (IDBS) software.

ROS1-G2032R = ROS1-G2032R (Homo sapiens (Human), UniProt P08922, G2032R); experiment: LanceUltra kinase activity assay, ROS1-G2032R; assay type: biochemical; conditions: 2.6 μM ATP
Experimental: 5 μl 40 mM EDTA was used to stop the reaction. Then 2 nM Europium-anti-phosphotyrosine (PT66) (PerkinElmer, Cat. AD0069) was added and incubated at room temperature for 60 mins. […] The IC50 values of the compounds were calculated using XLFIT5 (IDBS) software.

ROS1 = ROS1 (Homo sapiens (Human), UniProt P08922); experiment: Mobility shift assay, ROS1 kinase; assay type: biochemical; conditions: ATP 26.7 μM
Source text: as §1, §2

[2] = Pharmacokinetic analysis in rats; assay type: in vivo, Male SD rats; conditions: rat
Experimental: 6. Pharmacokinetic Analysis
Male SD rats were grouped, each group having 3 rats. […] Animals were fasted overnight from 10 hours before administration to 4 hours after administration. Blood samples were collected at 0.25, 0.5, 1, 2, 4, 8 and 24 hours after administration in the oral group and at 0.083, 0.25, 0.5, 1, 2, 4, 8 and 24 hours after injection in the intravenous group. After isoflurane anesthesia, 0.3 ml whole blood collected through the fundus vein plexus was put into the heparin anticoagulant tube. The sample was centrifuged at 4° C. at 4000 rpm for 5 min. The plasma was transferred into the centrifuge tube and stored at −80° C. until analysis. The extract from the plasma extracted by protein precipitation was analyzed by LC/MS/MS.

Chain of TRKC (Q16288 other isoform, or with tags, fused parts or gaps isoform Q16288-3): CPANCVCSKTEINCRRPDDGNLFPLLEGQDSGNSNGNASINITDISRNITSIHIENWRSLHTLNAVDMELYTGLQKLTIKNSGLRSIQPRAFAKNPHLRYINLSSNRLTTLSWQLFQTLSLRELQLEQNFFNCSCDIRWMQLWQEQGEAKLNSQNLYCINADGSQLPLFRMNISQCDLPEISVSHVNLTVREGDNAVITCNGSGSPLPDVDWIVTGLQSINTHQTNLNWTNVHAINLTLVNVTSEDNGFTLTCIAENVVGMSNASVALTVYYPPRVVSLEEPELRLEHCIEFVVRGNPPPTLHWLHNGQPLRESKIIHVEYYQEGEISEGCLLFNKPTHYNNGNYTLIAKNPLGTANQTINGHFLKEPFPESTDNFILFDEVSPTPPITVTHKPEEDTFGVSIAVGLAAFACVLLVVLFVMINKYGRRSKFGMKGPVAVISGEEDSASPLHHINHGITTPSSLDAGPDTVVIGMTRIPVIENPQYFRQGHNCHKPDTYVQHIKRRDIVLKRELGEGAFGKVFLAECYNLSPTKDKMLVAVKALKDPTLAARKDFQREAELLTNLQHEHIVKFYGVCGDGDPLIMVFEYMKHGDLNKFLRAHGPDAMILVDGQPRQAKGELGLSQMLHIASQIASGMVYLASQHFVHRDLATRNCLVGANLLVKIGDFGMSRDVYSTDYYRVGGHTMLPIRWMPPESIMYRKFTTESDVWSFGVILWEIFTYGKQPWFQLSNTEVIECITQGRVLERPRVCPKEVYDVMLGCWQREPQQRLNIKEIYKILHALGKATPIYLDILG
Chain of TRKA (P04629 33-796): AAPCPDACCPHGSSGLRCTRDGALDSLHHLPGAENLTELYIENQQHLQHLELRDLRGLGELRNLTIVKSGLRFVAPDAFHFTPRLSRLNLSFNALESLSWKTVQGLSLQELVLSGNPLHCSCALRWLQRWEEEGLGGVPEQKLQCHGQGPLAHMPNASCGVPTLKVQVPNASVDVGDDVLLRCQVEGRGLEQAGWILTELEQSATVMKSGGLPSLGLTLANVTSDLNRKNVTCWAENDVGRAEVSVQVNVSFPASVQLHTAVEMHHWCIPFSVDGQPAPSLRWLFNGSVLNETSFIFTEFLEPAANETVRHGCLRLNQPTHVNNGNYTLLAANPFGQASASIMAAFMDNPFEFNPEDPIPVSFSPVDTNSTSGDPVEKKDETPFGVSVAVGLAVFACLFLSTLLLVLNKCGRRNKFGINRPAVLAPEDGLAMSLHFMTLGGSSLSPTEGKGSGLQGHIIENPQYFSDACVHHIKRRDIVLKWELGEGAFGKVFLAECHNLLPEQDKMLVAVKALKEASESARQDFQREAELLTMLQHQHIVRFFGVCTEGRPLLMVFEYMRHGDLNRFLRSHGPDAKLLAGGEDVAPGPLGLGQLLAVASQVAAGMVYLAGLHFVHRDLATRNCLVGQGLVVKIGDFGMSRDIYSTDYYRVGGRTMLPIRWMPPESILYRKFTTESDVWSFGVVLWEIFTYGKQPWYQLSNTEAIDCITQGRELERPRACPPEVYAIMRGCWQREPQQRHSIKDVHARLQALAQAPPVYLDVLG
Chain of ROS1-G2032R (P08922 28-2347 G2032R): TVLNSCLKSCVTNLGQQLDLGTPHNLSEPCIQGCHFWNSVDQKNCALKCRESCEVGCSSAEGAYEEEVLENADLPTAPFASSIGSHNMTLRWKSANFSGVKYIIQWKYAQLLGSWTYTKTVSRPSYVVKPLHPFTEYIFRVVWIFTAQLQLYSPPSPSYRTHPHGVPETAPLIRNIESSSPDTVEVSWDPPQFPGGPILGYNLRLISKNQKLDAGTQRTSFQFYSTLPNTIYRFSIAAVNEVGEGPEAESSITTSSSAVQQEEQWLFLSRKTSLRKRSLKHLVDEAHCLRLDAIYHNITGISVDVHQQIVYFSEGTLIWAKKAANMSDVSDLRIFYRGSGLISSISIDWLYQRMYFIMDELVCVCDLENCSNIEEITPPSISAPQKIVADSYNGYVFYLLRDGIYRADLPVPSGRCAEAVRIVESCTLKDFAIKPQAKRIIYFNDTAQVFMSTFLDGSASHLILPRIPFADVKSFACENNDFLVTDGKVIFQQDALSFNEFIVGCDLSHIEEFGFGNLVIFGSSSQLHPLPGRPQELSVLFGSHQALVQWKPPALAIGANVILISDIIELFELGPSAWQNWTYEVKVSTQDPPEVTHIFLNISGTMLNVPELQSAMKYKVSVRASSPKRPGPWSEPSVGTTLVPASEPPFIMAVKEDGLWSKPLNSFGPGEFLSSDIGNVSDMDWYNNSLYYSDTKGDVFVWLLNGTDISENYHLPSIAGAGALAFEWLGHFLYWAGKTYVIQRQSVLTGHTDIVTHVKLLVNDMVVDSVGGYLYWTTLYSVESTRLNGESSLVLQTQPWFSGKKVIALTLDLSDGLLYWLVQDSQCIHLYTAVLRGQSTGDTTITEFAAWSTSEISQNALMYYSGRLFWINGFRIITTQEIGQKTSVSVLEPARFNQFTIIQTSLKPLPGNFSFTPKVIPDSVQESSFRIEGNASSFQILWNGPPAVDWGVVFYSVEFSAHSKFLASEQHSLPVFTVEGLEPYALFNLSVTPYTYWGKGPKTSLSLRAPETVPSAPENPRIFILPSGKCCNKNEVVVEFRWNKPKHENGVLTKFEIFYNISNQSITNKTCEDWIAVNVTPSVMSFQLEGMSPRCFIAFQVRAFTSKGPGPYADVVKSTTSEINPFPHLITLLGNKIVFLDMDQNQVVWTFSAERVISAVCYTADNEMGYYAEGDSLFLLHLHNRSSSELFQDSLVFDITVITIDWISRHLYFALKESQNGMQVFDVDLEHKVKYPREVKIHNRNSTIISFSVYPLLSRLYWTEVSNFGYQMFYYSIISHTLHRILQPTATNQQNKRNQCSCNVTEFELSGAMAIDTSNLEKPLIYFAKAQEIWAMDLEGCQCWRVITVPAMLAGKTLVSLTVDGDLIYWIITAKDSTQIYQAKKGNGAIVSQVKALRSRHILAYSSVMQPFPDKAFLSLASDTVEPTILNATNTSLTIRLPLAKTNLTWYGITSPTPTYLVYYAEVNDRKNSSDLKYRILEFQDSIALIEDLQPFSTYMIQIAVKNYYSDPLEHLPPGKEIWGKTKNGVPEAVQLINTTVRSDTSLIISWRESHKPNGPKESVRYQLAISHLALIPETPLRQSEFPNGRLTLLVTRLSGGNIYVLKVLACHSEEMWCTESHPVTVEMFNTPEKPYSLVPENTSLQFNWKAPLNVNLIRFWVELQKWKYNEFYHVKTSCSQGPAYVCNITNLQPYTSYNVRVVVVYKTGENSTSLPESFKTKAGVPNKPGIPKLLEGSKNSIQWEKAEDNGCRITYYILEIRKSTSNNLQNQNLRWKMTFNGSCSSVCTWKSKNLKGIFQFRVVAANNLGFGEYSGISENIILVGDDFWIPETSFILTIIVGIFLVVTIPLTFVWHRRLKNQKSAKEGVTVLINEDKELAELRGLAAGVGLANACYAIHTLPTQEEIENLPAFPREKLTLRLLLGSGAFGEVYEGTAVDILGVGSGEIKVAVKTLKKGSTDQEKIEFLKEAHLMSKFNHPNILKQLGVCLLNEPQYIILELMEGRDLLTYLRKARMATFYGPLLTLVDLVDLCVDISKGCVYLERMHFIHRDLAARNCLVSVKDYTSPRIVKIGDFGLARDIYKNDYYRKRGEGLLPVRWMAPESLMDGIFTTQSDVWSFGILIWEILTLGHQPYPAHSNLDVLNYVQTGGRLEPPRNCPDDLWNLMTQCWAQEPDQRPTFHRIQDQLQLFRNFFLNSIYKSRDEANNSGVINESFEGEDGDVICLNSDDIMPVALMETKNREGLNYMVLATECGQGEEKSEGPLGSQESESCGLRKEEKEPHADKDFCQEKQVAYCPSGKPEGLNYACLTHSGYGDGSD
Chain of TRKB (Q16620 32-822): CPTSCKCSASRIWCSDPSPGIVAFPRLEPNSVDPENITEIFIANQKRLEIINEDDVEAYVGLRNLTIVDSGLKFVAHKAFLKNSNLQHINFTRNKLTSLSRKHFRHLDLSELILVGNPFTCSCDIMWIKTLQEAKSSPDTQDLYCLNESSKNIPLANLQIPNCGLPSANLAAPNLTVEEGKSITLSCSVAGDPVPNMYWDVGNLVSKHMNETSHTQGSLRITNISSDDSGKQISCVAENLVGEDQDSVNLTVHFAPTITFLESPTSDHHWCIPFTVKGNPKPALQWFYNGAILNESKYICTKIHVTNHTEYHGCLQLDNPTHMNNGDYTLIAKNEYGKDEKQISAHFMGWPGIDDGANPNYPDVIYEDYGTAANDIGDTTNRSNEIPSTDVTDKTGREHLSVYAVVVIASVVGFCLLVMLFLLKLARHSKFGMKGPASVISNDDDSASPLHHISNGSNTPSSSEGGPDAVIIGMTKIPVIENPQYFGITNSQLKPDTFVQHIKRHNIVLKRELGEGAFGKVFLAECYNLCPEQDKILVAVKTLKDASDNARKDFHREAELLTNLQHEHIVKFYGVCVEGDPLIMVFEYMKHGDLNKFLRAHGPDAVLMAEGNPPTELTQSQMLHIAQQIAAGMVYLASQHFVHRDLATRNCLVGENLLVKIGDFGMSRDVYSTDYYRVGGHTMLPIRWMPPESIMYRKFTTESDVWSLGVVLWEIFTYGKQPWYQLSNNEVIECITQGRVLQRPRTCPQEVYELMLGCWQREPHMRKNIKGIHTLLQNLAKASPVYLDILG
Chain of ROS1 (P08922 28-2347): as the sequence (P08922 28-2347 G2032R) above, with R2005G counted along it

IC50 (TRKC): 0.61 nM | IC50 (TRKB): 0.5 nM | IC50 (Ba/F3 ETV6-NTRK3-WT; test batch marked #): 1.04 nM | IC50 (Ba/F3 ETV6-NTRK3-WT; test batch marked *): 0.2 nM | IC50 (TRKA): 0.42 nM | IC50 (Ba/F3 ETV6-NTRK2-WT; test batch marked #): 4.24 nM | IC50 (Ba/F3 ETV6-NTRK2-WT; test batch marked *): 7.8 nM | IC50 (Ba/F3 LMNA-NTRK3-G623R; test batch marked #): 8.34 nM | IC50 (Ba/F3 LMNA-NTRK3-G623R; test batch marked *): 8.4 nM | IC50 (ALK-L1196M): 50 nM | IC50 (ROS1-G2032R): 0.36 nM | IC50 (ROS1): 0.33 nM | AUC(0-inf) ([2]; male, SD, plasma, IV, 1 mg/kg): 621 ng·h/mL | C0 ([2]; male, SD, plasma, IV, 1 mg/kg): 217 ng/mL | half-life ([2]; male, SD, plasma, IV, 1 mg/kg): 1.7 h | clearance ([2]; male, SD, plasma, IV, 1 mg/kg, read-out: C1 (clearance)): 27.2 mL/min/kg | Vd ([2]; male, SD, plasma, IV, 1 mg/kg, read-out: Vdss): 4.26 L/kg | AUC(0-inf) ([2]; male, SD, plasma, PO, 5 mg/kg): 3550 ng·h/mL | Cmax ([2]; male, SD, plasma, PO, 5 mg/kg): 952 ng/mL | Tmax ([2]; male, SD, plasma, PO, 5 mg/kg): 0.667 h | half-life ([2]; male, SD, plasma, PO, 5 mg/kg): 1.84 h | bioavailability ([2]; male, SD, plasma, po, 5 mg/kg, PO, 5 mg/kg, read-out: F (oral bioavailability)): 100% | F (oral bioavailability) ([2]; PO, 5 mg/kg): 114%
SMILES: C[C@H]1COC(=O)c2cnn3ccc(nc23)N[C@H](C)c2cc(F)ccc2O1 [Example 1, (1^3E,1^4E,3R,6S)-4^5-fluoro-3,6-dimethyl-5,8-dioxa-2-aza-1(5,3)-pyrazolo[1,5-a]pyrimidina-4(1,2)-benzenacyclononaphan-9-one]
Combination Index (CI) [1]: 0.53-0.67 | PK performance compared with TPX-0005 ([2]; oral): better oral pharmacokinetic performance than that of TPX-0005
